Bridge positions count the residues as written; N and C are the ends. Square brackets hold non-standard residues; d marks the D form. Peptide text beside a SMILES is read from it. * marks the point of attachment. Palmitoyl = CCCCCCCCCCCCCCCC(=O)*; Myristoyl = CCCCCCCCCCCCCC(=O)*; Decanoyl = CCCCCCCCCC(=O)*; dOrn = NCCC[C@@H](N)C(=O)O; Octanoyl = CCCCCCCC(=O)*; Orn = NCCC[C@H](N)C(=O)O
Experiments:
P. aeruginosa PAO1 = type: cell-based, Pseudomonas aeruginosa; settings: PAO1, 18 h
Procedure: (§1) The minimum inhibitory concentrations (MICs) of brevicidine and laterocidine analogues were determined against a panel of clinically relevant ESKAPE pathogens; Escherichia coli (E. coli), Klebsiella pneumoniae (K. pneumoniae), Acinetobacter baumannii (A. baumannii), Pseudomonas aeruginosa (P. aeuroginosa) and Staphylococcus aureus (S. aureus), which cause the majority of nosocomial infections in the United States.[16] […] In this resistance mechanism, the polymyxin target (lipid A) is modified, reducing binding affinity. For this reason, a strain of colistin-resistant E. coli carrying the mcr-1 gene was also included in the panel. […]
(§2) IV. Antimicrobial testing
(§3) All minimum inhibitory concentrations (MICs) were determined according to Clinical and Standards Laboratory Institute (CLSI) guidelines. Blood agar plates were inoculated with glycerol stocks of E. coli ATCC 25922, K. pneumoniae ATCC 13883, A. baumannii ATCC 17961, P. aeruginosa PAO1 and S. aureus USA300. The inoculated agar plates were then incubated for 16 h at 37 °C . Individually grown colonies were subsequently used to inoculate 5 mL aliquots of TSB that were then incubated at 37 °C with shaking at 220 rpm. E. coli 25922 MCR-1 glycerol stock was used to inoculate 5 mL of TSB supplemented with kanamycin that was then incubated for 16 h at 37 °C with shaking at 220 rpm. The next day the culture was diluted 100 fold in TSB supplemented with kanamycin and incubated at 37 °C with shaking at 220 rpm. In parallel, the lipopeptide antibiotics DMSO stocks to be assessed were serially diluted with MHB in polypropylene 96-well plates (50 µL in each well). Colistin sulfate stocks were dissolved in water before being diluted with MHB. Aliquots of the inoculated TSB were incubated until an OD600 of around 0.5 was reached. The bacterial suspensions were then diluted with MHB (2 x 10^5 CFU mL-1) and added to the microplates containing the test compounds (50 µL to each well). The well-plates were sealed with an adhesive membrane and after 18 h of incubation at 37 °C with shaking at 600 rpm, the wells were visually inspected for bacterial […]
(§4) growth. MIC values reported are based on three technical replicates and defined as the lowest concentration of the compound that prevented visible growth of bacteria. […]
(§5) The values obtained from a read-out at 415 nm were corrected for background (negative control) and transformed to a percentage relative to the positive control.
(§6) VI. HPLC and HRMS analysis of peptides
(§7) Peptide Name Chemical Calcd Mass found Calcd Overall […]

E. coli ATCC 25922 MCR-1 = type: cell-based, Escherichia coli; settings: colistin-resistant strain carrying mcr-1; CLSI broth microdilution in MHB, 18 h at 37 °C, visual inspection; three technical replicates
Procedure: as §1
Colisitin sulfate was purchased from Activate Scientific. Kanamycin monosulfate was purchased from MP Biomedicals. E. coli ATCC 25922, S. aureus USA300 (ATCC BAA1717), K. pneumoniae ATCC 13883 and A. baumannii ATCC 17961 belong to the American Type Culture Collection (ATCC). P. aeruginosa PAO1 was kindly provided by L.H.C. Quarles Van Ufford, Utrecht University, Utrecht, The Netherlands. E. coli ATCC 25922 MCR-1 was transfected in house using the pGDP2-MCR1 plasmid kindly provided by Yong-Xin Li, The University of Hong Kong, Hong Kong, China. Sheep blood agar plates (Ref. PB5039A) were purchased from Thermo Scientific. Tryptic soy broth (Ref. 02-200-500) was purchased from Scharlab. Mueller-Hinton broth (Ref. X927.1) was purchased from Carl Roth. Polypropylene 96-wells plates (Ref. 3879) were purchased from Corning. […]
(10.0 mL). 2-Chlorotrityl (CT) chloride resin (2.00 g, 0.81 mmol g-1) and DIPEA (420 µL, 2.40 mmol) were added. […]
A gradient […]
method for C14 - C16 laterocidine was employed, starting at 100% solvent A for 2 min, ramping up to 70 % solvent B over 45 min, ramping up to 100% solvent B over 1 min, remaining there for 6 min before ramping down to 100% solvent A and remaining there for 5 min. High resolution mass spectrometry (HRMS) spectra of brevicidine peptides were recorded by Analytical Services and Environmental Projects (ASEP) at Queen’s University Belfast on a Waters LCT Premier ToF mass spectrometer using the electrospray ionisation (ESI) technique. HRMS spectra of laterocidine peptides were performed on a Thermo Scientific Dionex UltiMate 3000 HPLC system with a Phenomenex Kinetex C18 (2.6 µm, 2.1 x 150 mm) column at 35 °C and equipped with a diode array detector. The following solvent system, at a flow rate of 0.3 mL/min, was used: solvent A = 0.1% formic acid in water, solvent B = 0.1% formic acid in acetonitrile. A gradient method was employed, starting at 95 % solvent A and 5 % solvent B for 1 min, ramping up to 95 % solvent B over 9 min, ramping up to 98 % solvent B over 1 min, remaining there for 1 min before ramping back down to 95 % solvent A over 2 min and remaining there for 1 min.
The system was connected to a Bruker micrOTOF-Q II mass spectrometer (ESI ionization) calibrated internally with sodium […]
as §2
as §3, with “MHB.” for “MHB. Aliquots of the inoculated TSB were incubated until an OD600 of around 0.5 was reached. The bacterial suspensions were then diluted with MHB (2 x 10^5 CFU mL-1) and added to the microplates containing the test compounds (50 µL to each well). The well-plates were sealed with an adhesive membrane and after 18 h of incubation at 37 °C with shaking at 600 rpm, the wells were visually inspected for bacterial”

S. aureus USA300 = type: cell-based, Staphylococcus aureus; settings: USA300, 18 h
Procedure: as §1, §2, §3, §4, §5, §6, §7

E. coli ATCC 25922 = type: cell-based, Escherichia coli; settings: ATCC 25922, 18 h
Procedure: as §1, §2, §3, §4, §5, §6, §7

Sheep red blood cells = type: cell-based; settings: red cells of sheep, 1 h, 64 μg mL^−1
Procedure: Having ascertained the antimicrobial activity of all synthetic peptides against a panel of ESKAPE pathogens, we next assessed their mammalian toxicity with hemolytic assays using sheep red blood cells. The % hemolysis for all peptides at 64 μg mL^−1 was determined, with the hemolysis induced by the surfactant 0.1% Triton X-100 taken as 100%. […] Hemolysis was <1% for all analogues with a C8 chain or shorter, including the strongest antibacterial peptide C8-Lat (22). Hemolytic activity increased up to C14 (>50% for C14-Lat) and then decreased at longer chain lengths, perhaps due to decreased solubility of peptides or aggregation. […]
Phosphate-Buffered Saline (PBS) containing 0.002% Tween20 (buffer) five times. Then, the red blood cells were normalized to obtain a positive control read-out between 2.5 and 3.0 at 415 nm to stay within the linear range with the maximum sensitivity. A serial dilution of the compounds (128 – 1 µg/mL, 75 µL) was prepared in a 96-well polypropylene plate. The outer border of the plate was filled with 75 µL buffer. Each plate contained a positive control (0.1% Triton-X final concentration, 75 µL) and a negative control (buffer, 75 µL) in triplicate. The normalized blood cells (75 µL) were added and the plates were incubated at 37 °C for 1 h while shaking at 500 rpm. A flat-bottom polystyrene plate with 100 µL buffer in each well was prepared. After incubation, the plates were centrifuged (800 g for 5 min at room temperature) and 25 µL of the supernatant was transferred to their respective wells in the flat-bottom plate. The values obtained from a read-out at 415 nm were corrected for background (negative control) and transformed to a percentage relative to the positive control. […]

K. pneumoniae ATCC 13883 = type: cell-based, Klebsiella pneumoniae; settings: ATCC 13883, 18 h
Procedure: as §1, §2, §3, §4, §5, §6, §7

A. baumannii ATCC 17961 = type: cell-based, Acinetobacter baumannii; settings: ATCC 17961, 18 h
Procedure: as §1, §2, §3, §4, §5, §6, §7

Structure (SMILES) | Antimicrobial activity (MIC) P. aeruginosa PAO1 (P. aeruginosa PAO1) | Antimicrobial activity (MIC) E. coli ATCC 25922 MCR-1 (E. coli ATCC 25922 MCR-1) | Antimicrobial activity (MIC) S. aureus USA300 (S. aureus USA300) | Antimicrobial activity (MIC) E. coli ATCC 25922 (E. coli ATCC 25922) | % Hemolytic activity, sheep red blood cells (Sheep red blood cells) | Antimicrobial activity (MIC) K. pneumoniae ATCC 13883 (K. pneumoniae ATCC 13883) | Antimicrobial activity (MIC) A. baumannii ATCC 17961 (A. baumannii ATCC 17961)
CCCCCCCCCCCCCCCC(=O)N[C@H](CC(N)=O)C(=O)N[C@H](Cc1ccc(O)cc1)C(=O)N[C@H](Cc1c[nH]c2ccccc12)C(=O)N[C@H](CCCN)C(=O)N[C@@H](CCCN)C(=O)NCC(=O)N[C@H](CCCN)C(=O)N[C@@H](Cc1c[nH]c2ccccc12)C(=O)N[C@@H]1C(=O)N[C@@H]([C@@H](C)CC)C(=O)NCC(=O)N[C@@H](CO)C(=O)O[C@@H]1C [Compound 17] (Palmitoyl-[dN][dY][dW][dOrn][Orn]G[dOrn]WTIGS; ester 9-C) | >32 µg/mL | >32 µg/mL | >32 µg/mL | >32 µg/mL | 13.3% | >32 µg/mL | 32 µg/mL
CCCCCCCCCC(=O)N[C@H](CC(N)=O)C(=O)N[C@H](Cc1ccc(O)cc1)C(=O)N[C@H](Cc1c[nH]c2ccccc12)C(=O)N[C@H](CCCN)C(=O)N[C@@H](CCCN)C(=O)NCC(=O)N[C@H](CCCN)C(=O)N[C@@H](Cc1c[nH]c2ccccc12)C(=O)N[C@@H]1C(=O)N[C@@H]([C@@H](C)CC)C(=O)NCC(=O)N[C@@H](CO)C(=O)O[C@@H]1C [Compound 14] (Decanoyl-[dN][dY][dW][dOrn][Orn]G[dOrn]WTIGS; ester 9-C) | 8 µg/mL | 4 µg/mL | 32 µg/mL | 4 µg/mL | 6.2% | 4 µg/mL | 4 µg/mL
CC[C@H](C)[C@@H]1NC(=O)[C@@H](NC(=O)[C@H](Cc2c[nH]c3ccccc23)NC(=O)[C@@H](CCCN)NC(=O)CNC(=O)[C@H](CCCN)NC(=O)[C@@H](CCCN)NC(=O)[C@@H](Cc2c[nH]c3ccccc23)NC(=O)[C@@H](Cc2ccc(O)cc2)NC(=O)[C@@H](CC(N)=O)NC(C)=O)[C@@H](C)OC(=O)[C@H](CO)NC(=O)CNC1=O [Compound 10] (Ac-[dN][dY][dW][dOrn][Orn]G[dOrn]WTIGS; ester 9-C) | 8 µg/mL | >32 µg/mL | >32 µg/mL | >32 µg/mL | 0.2% | >32 µg/mL | >32 µg/mL
CCCCCCCCCCCCCC(=O)N[C@H](CO)C(=O)N[C@H](Cc1ccc(O)cc1)C(=O)N[C@H](Cc1c[nH]c2ccccc12)C(=O)N[C@H](CCCN)C(=O)N[C@@H](CCCN)C(=O)NCC(=O)N[C@H](CCCN)C(=O)N[C@@H](Cc1c[nH]c2ccccc12)C(=O)N[C@@H]1C(=O)N[C@@H]([C@@H](C)CC)C(=O)N[C@@H](CC(N)=O)C(=O)NCC(=O)NCC(=O)O[C@@H]1C [Compound 25] (Myristoyl-[dS][dY][dW][dOrn][Orn]G[dOrn]WTINGG; ester 9-C) | 8 µg/mL | 8 µg/mL | 16 µg/mL | 8 µg/mL |  | 8 µg/mL | 2 µg/mL
CCCCCCCC(=O)N[C@H](CO)C(=O)N[C@H](Cc1ccc(O)cc1)C(=O)N[C@H](Cc1c[nH]c2ccccc12)C(=O)N[C@H](CCCN)C(=O)N[C@@H](CCCN)C(=O)NCC(=O)N[C@H](CCCN)C(=O)N[C@@H](Cc1c[nH]c2ccccc12)C(=O)N[C@@H]1C(=O)N[C@@H]([C@@H](C)CC)C(=O)N[C@@H](CC(N)=O)C(=O)NCC(=O)NCC(=O)O[C@@H]1C [Compound 22] (Octanoyl-[dS][dY][dW][dOrn][Orn]G[dOrn]WTINGG; ester 9-C) | 2 µg/mL | 2 µg/mL | >32 µg/mL | 2 µg/mL |  | 2 µg/mL | 4 µg/mL

From article PMC9749936, “Synthesis and structure–activity relationship studies of N-terminal analogues of the lipopeptide antibiotics brevicidine and laterocidine” (RSC Medicinal Chemistry, 2022)
